Test results taken from US20230212549A1, “COMPOUNDS COMPRISING A […] LIGAND AND USE THEREOF” (priority 2021, published 2023).
Numbered stars: 1 amine (or outer) side, 2 acyl side, 3 side chain; on linkers, the order of the positions; unused ones are H or OH. Bridge positions count the residues as written; N and C are the ends. Square brackets hold non-standard residues; d marks the D form. Peptide text beside a SMILES is read from it. * marks the point of attachment. Bip = N[C@@H](Cc1ccc(-c2ccccc2)cc1)C(=O)O; Oic = O=C(O)[C@@H]1C[C@@H]2CCCC[C@@H]2N1; mXylylene = c1cc(C[*:1])cc(C[*:2])c1; PEG6 = NCCOCCOCCOCCOCCOCCOCCC(=O)O; X29 = O=C(CN1CCN([*:1])CC1)[*:2]; Tic = O=C(O)[C@@H]1Cc2ccccc2CN1; Pen = CC(C)(S)[C@H](N)C(=O)O; Nle = CCCC[C@H](N)C(=O)O; X2 = NCCNCC(CNCCN)C(=O)*; Hexanoyl = CCCCCC(=O)*; βAla = NCCC(=O)O

Key:
Human recombinant FAP = Human recombinant FAP (Homo sapiens, UniProt Q12884); experiment: FRET-based FAP protease activity assay; format: biochemical; set-up: purchased R&D systems 3715-SE
[1] = molecular target: T1, FAP-expressing human WI-38 fibroblasts (Homo sapiens, UniProt Q12884); experiment: Competitive FACS binding assay
T1 construct: FAP-expressing human WI-38 fibroblasts (ECACC) were cultured in EMEM; host or cells: WI-38 human fibroblasts
Method: Cells were analyzed in an Attune NxT flow cytometer. […] […].
Cells were analyzed in an Attune NxT flow cytometer. […]

[2] = pIC50 Category (activity), Recombinant human FAP
[3] = pIC50 Category (Activity), FRET-peptide substrate, 37° C.
[4] = pIC50 Category (Activity), FRET-based FAP protease activity assay, recombinant human FAP, 37° C.

Sequence of Human recombinant FAP (Q12884 whole entry): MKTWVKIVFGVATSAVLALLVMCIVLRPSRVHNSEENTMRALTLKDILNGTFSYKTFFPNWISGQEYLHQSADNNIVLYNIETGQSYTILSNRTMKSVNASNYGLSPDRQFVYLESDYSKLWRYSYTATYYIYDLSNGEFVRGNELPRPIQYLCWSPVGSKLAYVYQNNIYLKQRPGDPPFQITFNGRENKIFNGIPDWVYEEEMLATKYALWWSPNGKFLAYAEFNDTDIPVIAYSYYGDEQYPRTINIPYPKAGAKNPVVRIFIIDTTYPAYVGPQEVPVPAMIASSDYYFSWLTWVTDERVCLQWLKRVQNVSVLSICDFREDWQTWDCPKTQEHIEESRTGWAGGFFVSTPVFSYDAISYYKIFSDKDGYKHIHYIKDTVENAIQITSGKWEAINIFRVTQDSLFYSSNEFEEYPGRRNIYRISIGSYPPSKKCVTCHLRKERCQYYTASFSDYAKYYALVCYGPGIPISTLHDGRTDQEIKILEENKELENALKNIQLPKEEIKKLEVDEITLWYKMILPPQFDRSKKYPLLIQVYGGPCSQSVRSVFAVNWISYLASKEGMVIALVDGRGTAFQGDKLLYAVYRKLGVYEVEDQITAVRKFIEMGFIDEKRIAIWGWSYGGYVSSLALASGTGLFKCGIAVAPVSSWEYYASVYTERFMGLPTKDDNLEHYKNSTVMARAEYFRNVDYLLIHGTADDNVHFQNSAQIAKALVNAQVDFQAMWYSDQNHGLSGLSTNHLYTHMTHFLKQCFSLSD
T1 sequence (Q12884 whole entry): as above

Compound	IC50 [1] [nM]	IC50 (Human recombinant FAP; [3]) [nM]	IC50 (Human recombinant FAP; [4]) [nM]	further results
CCCC[C@H](NC(=O)CCNC(=O)CCOCCOCCOCCOCCOCCOCCNC(=O)C(CNCCN)CNCCN)C(=O)N[C@H]1CSCc2cccc(c2)CSC[C@@H](C(=O)O)NC(=O)[C@H](Cc2ccccc2)NC(=O)[C@H](CCC(=O)O)NC(=O)[C@H]([C@@H](C)O)NC(=O)[C@@H]2CCCN2C(=O)[C@@H]2CCCN2C1=O [3BP-4779, N4Ac-PEG6-Bal-Nle-[C(3MeBn)-PPTEFC]-OH] ({X2-PEG6-βAla}-[Nle]CPPTEFC-OH; linker 2-8 via mXylylene)	100 to 794			IC50 (Human recombinant FAP; [2]): > 1000 nM
C[C@@H](O)[C@@H]1NC(=O)[C@@H]2CCCN2C(=O)[C@@H]2CCCN2C(=O)[C@@H](NC(=O)NC2CCCC2)CSCc2cc(CSCCNC(=O)CN3CCN(CC(=O)O)CCN(CC(=O)O)CCN(CC(=O)O)CC3)cc(c2)CSC[C@@H](C(=O)O)NC(=O)[C@H](Cc2ccccc2)NC(=O)[C@H](CCC(N)=O)NC1=O [3BP-3917, Cpentyl-CAyl-[Cys(tMeBn(DOTA-AET))-Pro-Pro-Thr-Gln-Phe-Cys]-OH]	10 to 79.4	10 to 79.4		
CC(=O)N[C@@H](CCCC(=O)O)C(=O)N[C@H]1CSCc2cccc(c2)CSC[C@@H](C(N)=O)NC(=O)[C@H](Cc2ccccc2)NC(=O)[C@H](CCC(N)=O)NC(=O)[C@H]([C@@H](C)O)NC(=O)[C@@H]2CCCN2C(=O)[C@@H]2CCCN2C1=O [3BP-3764, Ac-Aad-[Cys(3MeBn)-Pro-Pro-Thr-Gln-Phe-Cys]-NH2]	> 1000		> 1000	
C[C@@H](O)[C@@H]1NC(=O)[C@@H]2CCCN2C(=O)[C@@H]2CCCN2C(=O)[C@@H](NC(=O)[C@@H]2CCCO2)CSCc2cc(CSCCNC(=O)CN3CCN(CC(=O)O)CCN(CC(=O)O)CCN(CC(=O)O)CC3)cc(c2)CSC[C@@H](C(=O)O)NC(=O)[C@H](Cc2ccccc2)NC(=O)[C@H](CCC(N)=O)NC1=O [3BP-3936, Sth-[Cys(tMeBn(DOTA-AET))-Pro-Pro-Thr-Gln-Phe-Cys]-OH]	10 to 79.4	10 to 79.4		
C=CCCOC(=O)N[C@H]1CSCc2cc(CSCCNC(=O)CN3CCN(CC(=O)O)CCN(CC(=O)O)CCN(CC(=O)O)CC3)cc(c2)CSC[C@@H](C(=O)O)NC(=O)[C@H](Cc2ccccc2)NC(=O)[C@H](CCC(N)=O)NC(=O)[C@H]([C@@H](C)O)NC(=O)[C@@H]2CCCN2C(=O)[C@@H]2CCCN2C1=O [3BP-3916, Bulloc-[Cys(tMeBn(DOTA-AET))-Pro-Pro-Thr-Gln-Phe-Cys]-OH]	< 10	10 to 79.4		
CSCC[C@H](NC(C)=O)C(=O)N[C@H]1CSCc2cccc(c2)CSC[C@@H](C(=O)N[C@@H](CC(=O)O)C(=O)N[C@@H](Cc2c[nH]cn2)C(=O)N[C@@H](Cc2ccccc2)C(=O)N[C@@H](CCCNC(=N)N)C(=O)N[C@@H](CC(=O)O)C(N)=O)NC(=O)[C@H](Cc2ccccc2)NC(=O)[C@H](CCC(=O)O)NC(=O)[C@H]([C@@H](C)O)NC(=O)[C@@H]2C[C@@H]3CCCC[C@@H]3N2C(=O)[C@@H]2CCCN2C1=O [3BP-3217, Ac-Met-[Cys(3MeBn)-Pro-Oic-Thr-Glu-Phe-Cys]-Asp-His-Phe-Arg-Asp-NH2] (Ac-MCP[Oic]TEFCDHFRD-NH2; linker 2-8 via mXylylene)	100 to 794		100 to 794	
CCCCCC(=O)N[C@H]1CSCc2cccc(c2)CSC[C@@H](C(N)=O)NC(=O)[C@H](Cc2ccc(-c3ccccc3)cc2)NC(=O)[C@H](CCC(=O)O)NC(=O)[C@H]([C@@H](C)O)NC(=O)[C@@H]2CCCN2C(=O)[C@@H]2CCCN2C1=O [3BP-3363, Hex-[Cys(3MeBn)-Pro-Pro-Thr-Glu-Bip-Cys]-NH2] (Hexanoyl-CPPTE[Bip]C-NH2; linker 1-7 via mXylylene)	> 1000		> 1000	
CCCCNC(=O)N[C@H]1CSCc2cc(CSCCNC(=O)CCP(=O)(O)CN3CCN(CP(=O)(O)CO)CCN(CP(=O)(O)CO)CC3)cc(c2)CSC[C@@H](C(=O)O)NC(=O)[C@H](Cc2ccccc2)NC(=O)[C@H](CCC(N)=O)NC(=O)[C@H]([C@@H](C)O)NC(=O)[C@@H]2CCCN2C(=O)[C@@H]2CCCN2C1=O [3BP-5260, nBu-CAyl-[C(tMeBn(GaNOPO-AET))-PPTQFC]-OH]				pIC50 Category (activity) (Human recombinant FAP; Recombinant human FAP): A (pIC50 category A stands for pIC50 values >8.0); pIC50 Category (FACS) ([1]; FAP-expressing human WI-38 fibroblasts): A (pIC50 category A stands for pIC50 values >8.0)
CCCC[C@H](NC(=O)CCC(=O)NCCCOCCOCCOCCCNC(=O)CN1CCN(CC(=O)O)CCN(CC(=O)O)CCN(CC(=O)O)CC1)C(=O)N[C@H]1CSCc2cc(CSCCNC(=O)CN3CCN(CC(=O)O)CCN(CC(=O)O)CCN(CC(=O)O)CC3)cc(c2)CSC[C@@H](C(=O)O)NC(=O)[C@H](Cc2ccccc2)NC(=O)[C@H](CCC(N)=O)NC(=O)[C@H]([C@@H](C)O)NC(=O)[C@@H]2CCCN2C(=O)[C@@H]2CCCN2C1=O [3BP-4386, DOTA-Ttds-Nle-[Cys(tMeBn(DOTA-AET))-Pro-Pro-Thr-Gln-Phe-Cys]-OH]	10 to 79.4	10 to 79.4		
C[C@@H](O)[C@@H]1NC(=O)[C@@H]2CCCN2C(=O)[C@@H]2CCCN2C(=O)[C@@H](NC(=O)C2CCCC2)CSCc2cc(CSCCNC(=O)CN3CCN(CC(=O)O)CCN(CC(=O)O)CCN(CC(=O)O)CC3)cc(c2)CSC[C@@H](C(=O)O)NC(=O)[C@H](Cc2ccccc2)NC(=O)[C@H](CCC(N)=O)NC1=O [3BP-3909, Cp-[Cys(tMeBn(DOTA-AET))-Pro-Pro-Thr-Gln-Phe-Cys]-OH]	10 to 79.4	10 to 79.4		
C[C@@H](O)[C@@H]1NC(=O)[C@@H]2CCCN2C(=O)[C@@H]2CCCN2C(=O)[C@@H](NC(=O)C2CCOC2)CSCc2cc(CSCCNC(=O)CN3CCN(CC(=O)O)CCN(CC(=O)O)CCN(CC(=O)O)CC3)cc(c2)CSC[C@@H](C(=O)O)NC(=O)[C@H](Cc2ccccc2)NC(=O)[C@H](CCC(N)=O)NC1=O (stereo partly drawn) [3BP-3919, Fur-[Cys(tMeBn(DOTA-AET))-Pro-Pro-Thr-Gln-Phe-Cys]-OH]	100 to 794	100 to 794		
CCCCCC(=O)N[C@H]1CSCc2cc(CSCCNC(=O)COCCOCCNC(=O)CCC(C(=O)O)N3CCN(CC(=O)O)CCN(CC(=O)O)CC3)cc(c2)CSCC(C(N)=O)NC(=O)[C@H](Cc2ccccc2)NC(=O)[C@H](CCC(N)=O)NC(=O)[C@H]([C@@H](C)O)NC(=O)[C@@H]2CCCN2C(=O)[C@@H]2CCCN2C1=O (stereo partly drawn) [3BP-4708, Hex-[Cys(tMeBn(NODAGA-O2Oc-AET))-Pro-Pro-Thr-Gln-Phe-Cys]-NH2]	< 10			IC50 (Human recombinant FAP; [2]): < 10 nM
C[C@@H](O)[C@@H]1NC(=O)[C@@H]2CCCN2C(=O)[C@@H]2CCCN2C(=O)[C@@H](NC(=O)CCCCN)CSCc2cccc(c2)CSC[C@@H](C(N)=O)NC(=O)[C@H](Cc2ccccc2)NC(=O)[C@H](CCC(N)=O)NC1=O [3BP-3760, H-Ava-[Cys(3MeBn)-Pro-Pro-Thr-Gln-Phe-Cys]-NH2]	> 1000		> 1000	
CCCCCC(=O)N[C@H]1CSCc2cccc(c2)CSC[C@@H](C(N)=O)NC(=O)[C@@H]2Cc3ccccc3CN2C(=O)[C@H](CCC(=O)O)NC(=O)[C@H]([C@@H](C)O)NC(=O)[C@@H]2CCCN2C(=O)[C@@H]2CCCN2C1=O [3BP-3359, Hex-[Cys(3MeBn)-Pro-Pro-Thr-Glu-Tic-Cys]-NH2] (Hexanoyl-CPPTE[Tic]C-NH2; linker 1-7 via mXylylene)	> 1000		100 to 794	
C[C@@H](O)[C@@H]1NC(=O)[C@@H]2CCCN2C(=O)[C@@H]2CCCN2C(=O)[C@@H](NC(=O)CCCC(=O)O)CSCc2cccc(c2)CSC[C@@H](C(N)=O)NC(=O)[C@H](Cc2ccccc2)NC(=O)[C@H](CCC(N)=O)NC1=O [3BP-3765, HO-Glutar-[Cys(3MeBn)-Pro-Pro-Thr-Gln-Phe-Cys]-NH2]	100 to 794		100 to 794	
CCCC[C@H](NC(=O)CCNC(=O)CN1CCN(C(=O)C(CNCCN)CNCCN)CC1)C(=O)N[C@H]1CSCc2cccc(c2)CSC[C@@H](C(=O)O)NC(=O)[C@H](Cc2ccccc2)NC(=O)[C@H](CCC(=O)O)NC(=O)[C@H]([C@@H](C)O)NC(=O)[C@@H]2CCCN2C(=O)[C@@H]2CCCN2C1=O [3BP-4783, N4Ac-PPAc-Bal--Nle-[C(3MeBn)-PPTEFC]-OH] (X2-[X29][βAla][Nle]CPPTEFC-OH; linker 4-10 via mXylylene)	> 1000			IC50 (Human recombinant FAP; [2]): > 1000 nM
CCCCCC(=O)N[C@H]1CSCc2cccc(c2)CSC(C)(C)[C@@H](C(N)=O)NC(=O)[C@H](Cc2ccccc2)NC(=O)[C@H](CCC(=O)O)NC(=O)[C@H]([C@@H](C)O)NC(=O)[C@@H]2CCCN2C(=O)[C@@H]2CCCN2C1=O [3BP-3351, Hex-[Cys(3MeBn)-Pro-Pro-Thr-Glu-Phe-Pen]-NH2] (Hexanoyl-CPPTEF[Pen]-NH2; linker 1-7 via mXylylene)	> 1000		100 to 794	
Hex-[Cys(3MeBn)-Pro-Pro-Thr-Glu-Phe-Cys]-Asp-Omp-Arg-NH2 [3BP-3302]				pIC50 Category (activity) (Human recombinant FAP; FRET-based FAP protease activity assay, recombinant human FAP, 37° C.): A (pIC50 category A stands for pIC50 values >8.0); pIC50 Category (FACS) ([1]; competition with 3 nM Cy5-labeled compound, WI-38 fibroblasts, 4° C., 1 hour): A (pIC50 category A stands for pIC50 values >8.0)
CCCCCC(=O)N[C@H]1CSCc2cc(CSCCNC(=O)CN3CCN(CC(=O)O)CCN(CC(N)=O)CCN(CC(=O)O)CC3)cc(c2)CSCC(C(=O)O)NC(=O)[C@H](Cc2ccccc2)NC(=O)[C@H](CCC(N)=O)NC(=O)[C@H]([C@@H](C)O)NC(=O)[C@@H]2CCCN2C(=O)[C@@H]2CCCN2C1=O (stereo partly drawn) [3BP-5288, Hex-[Cys(tMeBn(LSC-AET))-Pro-Pro-Thr-Gln-Phe-Cys]-OH]	< 10			IC50 (Human recombinant FAP; [2]): < 10 nM
